Results: patent US10927123B2, “Modulators of the beta-3 adrenergic receptor useful for the treatment or prevention of disorders related thereto” (Arena Pharmaceuticals, Inc., priority 2016, dated 2021)

Target: Beta-3 Adrenergic Receptor (Homo sapiens (Human), UniProt P13945)
Experiment: HTRF cAMP antagonist assay (IC50 determination)
Format: cell-based
Settings: CHO-K1 cells stably expressing recombinant receptor; antagonism of isoproterenol at EC90; cAMP readout
Method in brief: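 CHO-K1 cells stably expressing receptor, 1500 cells/well, preincubated briefly with 10-point 5-fold compound series (top final typically 10 or 100 μM) in PBS with 1 mM IBMX, then challenged with isoproterenol at EC90 for 1 h at room temperature. cAMP read by HTRF against on-plate standard curve; IC50 from dose-response.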

Sequence of Beta-3 Adrenergic Receptor (P13945 whole entry, species assumed): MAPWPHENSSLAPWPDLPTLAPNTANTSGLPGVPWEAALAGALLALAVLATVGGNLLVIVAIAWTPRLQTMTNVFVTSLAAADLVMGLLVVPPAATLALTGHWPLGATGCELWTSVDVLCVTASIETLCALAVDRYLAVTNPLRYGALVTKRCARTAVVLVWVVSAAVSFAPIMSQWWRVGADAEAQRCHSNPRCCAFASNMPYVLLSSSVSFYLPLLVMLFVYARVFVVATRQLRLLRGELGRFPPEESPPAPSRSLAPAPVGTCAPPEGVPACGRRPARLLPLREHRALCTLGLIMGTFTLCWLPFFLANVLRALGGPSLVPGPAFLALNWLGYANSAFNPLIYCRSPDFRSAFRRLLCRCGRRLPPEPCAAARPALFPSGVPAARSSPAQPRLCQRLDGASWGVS

Row | SMILES | IC50 [nM]
1 | CC(C)(CO)S(=O)(=O)c1cccc(OC[C@@H](O)CN[C@H]2COC3(CCN(S(=O)(=O)c4cnc5ccccc5c4)CC3)C2)c1 [Compound 106, 2-(3-((S)-2-hydroxy-3-((R)-8-(quinolin-3-ylsulfonyl)-1-oxa-8-azaspiro[4.5]decan-3-ylamino)propoxy)phenylsulfonyl)-2-methylpropan-1-ol] | 36.2
2 | O=S(=O)(c1cnc2ccccc2c1)N1CCC2(CC1)C[C@@H](NC[C@H](O)COc1cccc(S(=O)(=O)C3(CO)CCC3)c1)CO2 [Compound 107, (S)-1-(3-(1-(hydroxymethyl)cyclobutylsulfonyl)phenoxy)-3-((R)-8-(quinolin-3-ylsulfonyl)-1-oxa-8-azaspiro[4.5]decan-3-ylamino)propan-2-ol] | 25.7
3 | CC(C)(C(N)=O)S(=O)(=O)c1cccc(OC[C@@H](O)CN[C@H]2COC3(CCN(S(=O)(=O)c4cnc5ccccc5c4)CC3)C2)c1 [Compound 108, 2-(3-((S)-2-hydroxy-3-((R)-8-(quinolin-3-ylsulfonyl)-1-oxa-8-azaspiro[4.5]decan-3-ylamino)propoxy)phenylsulfonyl)-2-methylpropanamide] | 325
4 | CC(C)(CO)S(=O)(=O)c1cccc(OC[C@@H](O)CN[C@H]2COC3(CCN(S(=O)(=O)c4ccc5ncccc5c4)CC3)C2)c1 [Compound 109, 2-(3-((S)-2-hydroxy-3-((R)-8-(quinolin-6-ylsulfonyl)-1-oxa-8-azaspiro[4.5]decan-3-ylamino)propoxy)phenylsulfonyl)-2-methylpropan-1-ol] | 145
5 | O=S(=O)(c1ccc2ncccc2c1)N1CCC2(CC1)C[C@@H](NC[C@H](O)COc1cccc(S(=O)(=O)C3(CO)CCC3)c1)CO2 [Compound 110, (S)-1-(3-(1-(hydroxymethyl)cyclobutylsulfonyl)phenoxy)-3-((R)-8-(quinolin-6-ylsulfonyl)-1-oxa-8-azaspiro[4.5]decan-3-ylamino)propan-2-ol] | 68.7
6 | CS(=O)(=O)c1cccc(OC[C@@H](O)CN[C@H]2COC3(CCN(S(=O)(=O)c4ccc5ncccc5c4)CC3)C2)c1 [Compound 111, (S)-1-(3-(methylsulfonyl)phenoxy)-3-((R)-8-(quinolin-6-ylsulfonyl)-1-oxa-8-azaspiro[4.5]decan-3-ylamino)propan-2-ol] | 31.1
7 | CCS(=O)(=O)c1cccc(OC[C@@H](O)CN[C@H]2COC3(CCN(S(=O)(=O)c4ccc5ncccc5c4)CC3)C2)c1 [Compound 112, (S)-1-(3-(ethylsulfonyl)phenoxy)-3-((R)-8-(quinolin-6-ylsulfonyl)-1-oxa-8-azaspiro[4.5]decan-3-ylamino)propan-2-ol] | 39.5
8 | CC(C)S(=O)(=O)c1cccc(OC[C@@H](O)CN[C@H]2COC3(CCN(S(=O)(=O)c4ccc5ncccc5c4)CC3)C2)c1 [Compound 113, (S)-1-(3-(isopropylsulfonyl)phenoxy)-3-((R)-8-(quinolin-6-ylsulfonyl)-1-oxa-8-azaspiro[4.5]decan-3-ylamino)propan-2-ol] | 26.8
9 | O=S(=O)(c1cccc(OC[C@@H](O)CN[C@H]2COC3(CCN(S(=O)(=O)c4ccc5ncccc5c4)CC3)C2)c1)C1CCC1 [Compound 114, (S)-1-(3-(cyclobutylsulfonyl)phenoxy)-3-((R)-8-(quinolin-6-ylsulfonyl)-1-oxa-8-azaspiro[4.5]decan-3-ylamino)propan-2-ol] | 52
10 | CCCS(=O)(=O)c1cccc(OC[C@@H](O)CN[C@H]2COC3(CCN(S(=O)(=O)c4ccc5ncccc5c4)CC3)C2)c1 [Compound 115, (S)-1-(3-(propylsulfonyl)phenoxy)-3-((R)-8-(quinolin-6-ylsulfonyl)-1-oxa-8-azaspiro[4.5]decan-3-ylamino)propan-2-ol] | 120
11 | CC(C)CS(=O)(=O)c1cccc(OC[C@@H](O)CN[C@H]2COC3(CCN(S(=O)(=O)c4ccc5ncccc5c4)CC3)C2)c1 [Compound 116, (S)-1-(3-(isobutylsulfonyl)phenoxy)-3-((R)-8-(quinolin-6-ylsulfonyl)-1-oxa-8-azaspiro[4.5]decan-3-ylamino)propan-2-ol] | 320
12 | O=S(=O)(CC1CC1)c1cccc(OC[C@@H](O)CN[C@H]2COC3(CCN(S(=O)(=O)c4ccc5ncccc5c4)CC3)C2)c1 [Compound 117, (S)-1-(3-(cyclopropylmethylsulfonyl)phenoxy)-3-((R)-8-(quinolin-6-ylsulfonyl)-1-oxa-8-azaspiro[4.5]decan-3-ylamino)propan-2-ol] | 172
13 | CS(=O)(=O)c1cccc(OC[C@@H](O)CN[C@H]2COC3(CCN(S(=O)(=O)c4cnc5ccccc5c4)CC3)C2)c1 [Compound 118, (S)-1-(3-(methylsulfonyl)phenoxy)-3-((R)-8-(quinolin-3-ylsulfonyl)-1-oxa-8-azaspiro[4.5]decan-3-ylamino)propan-2-ol] | 10.4
14 | CC(C)S(=O)(=O)c1cccc(OC[C@@H](O)CN[C@H]2COC3(CCN(S(=O)(=O)c4cnc5ccccc5c4)CC3)C2)c1 [Compound 119, (S)-1-(3-(isopropylsulfonyl)phenoxy)-3-((R)-8-(quinolin-3-ylsulfonyl)-1-oxa-8-azaspiro[4.5]decan-3-ylamino)propan-2-ol] | 11.6
15 | Cc1cccc(-c2cccc(S(=O)(=O)N3CCC4(CC3)C[C@H](NC[C@H](O)COc3cccc(S(=O)(=O)CCO)c3)CO4)c2)n1 [Compound 120, (5)-1-(3-(2-hydroxyethylsulfonyl)phenoxy)-3-((S)-8-(3-(6-methylpyridin-2-yl)phenylsulfonyl)-1-oxa-8-azaspiro[4.5]decan-3-ylamino)propan-2-ol] | 177
16 | O=S(=O)(CCCO)c1cccc(OC[C@@H](O)CN[C@H]2COC3(CCN(S(=O)(=O)c4ccc5ncccc5c4)CC3)C2)c1 [Compound 121, 3-(3-((S)-2-hydroxy-3-((R)-8-(quinolin-6-ylsulfonyl)-1-oxa-8-azaspiro[4.5]decan-3-ylamino)propoxy)phenylsulfonyl)propan-1-ol] | 562
17 | CCS(=O)(=O)c1cccc(OC[C@@H](O)CN[C@H]2COC3(CCN(S(=O)(=O)c4cnc5ccccc5c4)CC3)C2)c1 [Compound 122, (S)-1-(3-(ethylsulfonyl)phenoxy)-3-((R)-8-(quinolin-3-ylsulfonyl)-1-oxa-8-azaspiro[4.5]decan-3-ylamino)propan-2-ol] | 7.81
18 | CC(C)CS(=O)(=O)c1cccc(OC[C@@H](O)CN[C@H]2COC3(CCN(S(=O)(=O)c4cnc5ccccc5c4)CC3)C2)c1 [Compound 124, (S)-1-(3-(isobutylsulfonyl)phenoxy)-3-((R)-8-(quinolin-3-ylsulfonyl)-1-oxa-8-azaspiro[4.5]decan-3-ylamino)propan-2-ol] | 78.2
19 | O=S(=O)(CCO)c1cccc(OC[C@@H](O)CN[C@H]2COC3(CCN(S(=O)(=O)c4cccc(-c5cccc(C(F)(F)F)n5)c4)CC3)C2)c1 [Compound 125, (S)-1-(3-(2-hydroxyethylsulfonyl)phenoxy)-3-((R)-8-(3-(6-(trifluoromethyl)pyridin-2-yl)phenylsulfonyl)-1-oxa-8-azaspiro[4.5]decan-3-ylamino)propan-2-ol] | 48.8
20 | O=S(=O)(CCO)c1cccc(OC[C@@H](O)CN[C@H]2COC3(CCN(S(=O)(=O)c4cccc(-c5ncccc5F)c4)CC3)C2)c1 [Compound 126, (S)-1-((R)-8-(3-(3-fluoropyridin-2-yl)phenylsulfonyl)-1-oxa-8-azaspiro[4.5]decan-3-ylamino)-3-(3-(2-hydroxyethylsulfonyl)phenoxy)propan-2-ol] | 126
